Reference: ChEMBL document CHEMBL5214883, “Comprehensive review for anticancer hybridized multitargeting HDAC inhibitors” (Eur J Med Chem, 2021)
Values belong to the compound of their own block, whether it stands above or below them.

Tests used:
[1] = system: SMMC-7721; assay: Cytotoxicity against human SMMC-7721 cells; assay type: functional, cell-based
[2] = biological target: T1, Protein deacetylase HDAC6 (Homo sapiens, UniProt Q9UBN7); assay: Inhibition of HDAC6 (unknown origin)
T1 sequence (Q9UBN7 whole entry): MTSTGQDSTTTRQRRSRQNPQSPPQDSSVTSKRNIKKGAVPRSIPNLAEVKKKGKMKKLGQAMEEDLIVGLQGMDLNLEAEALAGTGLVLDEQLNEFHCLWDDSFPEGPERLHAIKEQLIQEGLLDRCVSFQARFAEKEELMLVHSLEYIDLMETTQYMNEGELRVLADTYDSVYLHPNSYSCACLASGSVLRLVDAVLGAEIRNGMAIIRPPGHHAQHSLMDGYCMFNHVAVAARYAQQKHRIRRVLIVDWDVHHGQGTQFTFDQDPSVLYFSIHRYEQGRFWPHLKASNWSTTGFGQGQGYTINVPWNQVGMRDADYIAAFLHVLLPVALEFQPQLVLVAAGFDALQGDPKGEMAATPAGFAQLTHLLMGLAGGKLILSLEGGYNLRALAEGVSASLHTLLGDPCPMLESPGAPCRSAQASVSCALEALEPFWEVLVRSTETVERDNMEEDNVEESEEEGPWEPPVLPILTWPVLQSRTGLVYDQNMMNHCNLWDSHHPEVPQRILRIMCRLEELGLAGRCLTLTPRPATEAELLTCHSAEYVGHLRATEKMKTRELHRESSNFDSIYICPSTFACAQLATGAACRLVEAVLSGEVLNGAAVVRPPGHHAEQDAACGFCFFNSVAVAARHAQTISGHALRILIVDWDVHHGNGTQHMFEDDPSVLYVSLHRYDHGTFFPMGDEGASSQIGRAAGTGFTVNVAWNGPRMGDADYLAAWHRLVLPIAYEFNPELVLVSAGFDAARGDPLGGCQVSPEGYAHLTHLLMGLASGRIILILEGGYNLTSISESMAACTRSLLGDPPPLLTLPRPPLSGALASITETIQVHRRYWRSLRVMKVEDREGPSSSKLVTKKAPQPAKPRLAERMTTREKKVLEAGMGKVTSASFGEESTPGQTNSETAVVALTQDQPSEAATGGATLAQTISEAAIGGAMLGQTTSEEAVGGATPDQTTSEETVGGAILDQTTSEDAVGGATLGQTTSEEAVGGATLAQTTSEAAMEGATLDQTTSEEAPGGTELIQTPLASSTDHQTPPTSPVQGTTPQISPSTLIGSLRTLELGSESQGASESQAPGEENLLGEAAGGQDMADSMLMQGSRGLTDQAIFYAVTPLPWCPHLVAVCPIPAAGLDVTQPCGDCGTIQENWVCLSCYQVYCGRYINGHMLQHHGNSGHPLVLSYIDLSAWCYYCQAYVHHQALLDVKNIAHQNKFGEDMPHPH

[3] = biological target: Histone deacetylase 8 (Homo sapiens, UniProt Q9BY41); assay: Inhibition of HDAC8 (unknown origin)
Chain of Histone deacetylase 8 (Q9BY41 whole entry): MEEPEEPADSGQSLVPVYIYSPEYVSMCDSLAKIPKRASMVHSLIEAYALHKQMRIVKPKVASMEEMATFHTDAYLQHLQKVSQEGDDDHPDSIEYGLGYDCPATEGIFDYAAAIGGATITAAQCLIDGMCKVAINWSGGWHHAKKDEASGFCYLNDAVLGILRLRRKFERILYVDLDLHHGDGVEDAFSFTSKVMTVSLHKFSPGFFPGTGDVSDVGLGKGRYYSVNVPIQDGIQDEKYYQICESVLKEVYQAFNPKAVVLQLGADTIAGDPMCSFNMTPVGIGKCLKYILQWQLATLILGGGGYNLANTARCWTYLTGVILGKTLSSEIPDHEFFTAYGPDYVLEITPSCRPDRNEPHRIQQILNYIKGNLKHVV

[4] = biological target: Histone deacetylase 3 (Homo sapiens, UniProt O15379); assay: Inhibition of HDAC3 (unknown origin)
Chain of Histone deacetylase 3 (O15379 whole entry): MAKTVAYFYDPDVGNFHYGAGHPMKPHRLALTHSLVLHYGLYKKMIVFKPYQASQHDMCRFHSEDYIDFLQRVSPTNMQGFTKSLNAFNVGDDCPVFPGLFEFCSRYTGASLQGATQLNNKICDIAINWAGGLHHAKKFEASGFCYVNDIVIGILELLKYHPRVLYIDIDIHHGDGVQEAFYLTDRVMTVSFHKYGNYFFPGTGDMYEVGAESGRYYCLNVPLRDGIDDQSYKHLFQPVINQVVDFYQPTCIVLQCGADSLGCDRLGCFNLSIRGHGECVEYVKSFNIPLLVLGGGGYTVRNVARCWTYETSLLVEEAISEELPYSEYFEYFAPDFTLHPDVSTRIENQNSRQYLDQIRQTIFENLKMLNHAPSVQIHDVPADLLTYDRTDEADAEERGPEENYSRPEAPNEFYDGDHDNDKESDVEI

[5] = biological target: Histone deacetylase 11 (Homo sapiens, UniProt Q96DB2); assay: Inhibition of HDAC11 (unknown origin)
Chain of Histone deacetylase 11 (Q96DB2 whole entry): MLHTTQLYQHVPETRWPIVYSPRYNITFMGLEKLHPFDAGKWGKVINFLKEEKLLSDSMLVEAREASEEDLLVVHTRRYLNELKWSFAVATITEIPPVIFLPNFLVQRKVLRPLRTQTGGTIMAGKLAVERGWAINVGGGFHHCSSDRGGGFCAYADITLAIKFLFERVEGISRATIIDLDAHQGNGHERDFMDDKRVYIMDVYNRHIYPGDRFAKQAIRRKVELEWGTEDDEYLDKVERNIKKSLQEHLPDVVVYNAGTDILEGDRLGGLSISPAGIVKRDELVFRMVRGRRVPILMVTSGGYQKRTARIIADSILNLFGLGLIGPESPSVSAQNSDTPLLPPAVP

[6] = biological target: T2, Receptor tyrosine-protein kinase erbB-2 (Homo sapiens, UniProt P04626); assay: Inhibition of HER2 (unknown origin) at 10 ug/ml using synthetic biotinylated peptide as substrate by Wallac Victor II 1420 microplate reader method relative to control; conditions: dose 10.0 µg/ml
T2 sequence (P04626 whole entry): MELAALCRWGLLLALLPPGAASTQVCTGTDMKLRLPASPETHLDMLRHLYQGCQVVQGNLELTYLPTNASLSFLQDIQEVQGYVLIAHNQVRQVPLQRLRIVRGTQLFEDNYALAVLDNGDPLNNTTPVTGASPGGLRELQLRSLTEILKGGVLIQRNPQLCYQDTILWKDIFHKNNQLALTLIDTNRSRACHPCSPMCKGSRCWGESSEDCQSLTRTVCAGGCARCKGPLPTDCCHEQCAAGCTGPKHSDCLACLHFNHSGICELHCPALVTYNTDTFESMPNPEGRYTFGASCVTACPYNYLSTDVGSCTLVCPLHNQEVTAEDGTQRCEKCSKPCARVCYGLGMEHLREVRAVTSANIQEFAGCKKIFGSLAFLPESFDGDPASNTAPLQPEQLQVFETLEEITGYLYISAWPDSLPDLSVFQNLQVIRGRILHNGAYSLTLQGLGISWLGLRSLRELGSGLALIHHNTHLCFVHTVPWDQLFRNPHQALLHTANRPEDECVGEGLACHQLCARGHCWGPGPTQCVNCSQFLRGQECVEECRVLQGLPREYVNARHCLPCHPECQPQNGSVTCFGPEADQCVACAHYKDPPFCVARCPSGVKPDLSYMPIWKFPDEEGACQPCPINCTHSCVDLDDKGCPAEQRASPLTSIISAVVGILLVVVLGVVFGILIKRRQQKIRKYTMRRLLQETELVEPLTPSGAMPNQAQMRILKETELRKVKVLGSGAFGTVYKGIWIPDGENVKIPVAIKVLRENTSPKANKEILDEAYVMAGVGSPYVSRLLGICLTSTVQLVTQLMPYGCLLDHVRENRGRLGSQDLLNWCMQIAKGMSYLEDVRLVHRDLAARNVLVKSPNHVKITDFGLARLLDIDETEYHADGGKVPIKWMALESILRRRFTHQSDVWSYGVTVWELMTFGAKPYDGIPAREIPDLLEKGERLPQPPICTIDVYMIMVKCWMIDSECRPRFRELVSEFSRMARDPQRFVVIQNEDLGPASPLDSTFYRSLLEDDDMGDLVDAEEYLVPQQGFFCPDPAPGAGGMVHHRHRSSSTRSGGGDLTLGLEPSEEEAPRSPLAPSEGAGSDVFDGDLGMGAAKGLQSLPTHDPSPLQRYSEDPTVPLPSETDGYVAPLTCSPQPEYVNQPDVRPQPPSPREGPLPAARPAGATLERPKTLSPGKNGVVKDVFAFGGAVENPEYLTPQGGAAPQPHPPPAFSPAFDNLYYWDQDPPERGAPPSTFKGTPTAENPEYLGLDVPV

[7] = Cytotoxicity against human WM983B cells; assay type: functional, cell-based
[8] = biological target: Vitamin D3 receptor (Homo sapiens, UniProt P11473); assay: Agonist activity at Vitamin D receptor (unknown origin) by fluorescence polarization assay
Chain of Vitamin D3 receptor (P11473 whole entry): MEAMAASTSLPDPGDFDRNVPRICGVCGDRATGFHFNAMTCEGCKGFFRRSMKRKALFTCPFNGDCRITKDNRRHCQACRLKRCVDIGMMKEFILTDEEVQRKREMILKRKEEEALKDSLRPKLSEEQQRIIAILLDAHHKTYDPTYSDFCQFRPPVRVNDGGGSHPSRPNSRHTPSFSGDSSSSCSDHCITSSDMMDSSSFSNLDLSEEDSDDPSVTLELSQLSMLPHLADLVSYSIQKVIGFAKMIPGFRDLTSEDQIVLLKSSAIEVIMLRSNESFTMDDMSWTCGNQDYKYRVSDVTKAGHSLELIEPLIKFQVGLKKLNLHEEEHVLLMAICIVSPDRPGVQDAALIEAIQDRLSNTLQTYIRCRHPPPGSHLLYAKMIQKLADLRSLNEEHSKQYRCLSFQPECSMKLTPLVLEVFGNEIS

[9] = system: PC-3; assay: Cytotoxicity against human PC-3 cells; assay type: functional, cell-based
[10] = system: RWPE-1; assay: Cytotoxicity against human RWPE-1 cells; assay type: functional, cell-based
[11] = system: MDA-MB-231; assay: Cytotoxicity against human MDA-MB-231 cells; assay type: functional, cell-based
[12] = Cytotoxicity against African green monkey Vero cells; conditions: African green monkey (Chlorocebus sabaeus)
[13] = system: MCF7; assay: Cytotoxicity against human MCF7 cells; assay type: functional, cell-based
[14] = system: CAPAN-1; assay: Antitumor activity against human CAPAN-1 cells xenografted in mouse assessed tumor growth inhibition at 20 mg/kg, ip, bid relative to control; assay type: functional; conditions: read-out: TGI
[15] = system: HCT-116; assay: In vivo antitumor activity against human HCT-116 cells xenografted in BALB/c nude mouse assessed as tumor growth inhibition at 150 mg/kg, po relative to control; assay type: functional; conditions: read-out: TGI
[16] = biological target: Histone deacetylase 2 (Homo sapiens, UniProt Q92769); assay: Inhibition of human HDAC2 incubated for 30 mins by SpectraMax M2 microplate reader analysis
Chain of Histone deacetylase 2 (Q92769 whole entry): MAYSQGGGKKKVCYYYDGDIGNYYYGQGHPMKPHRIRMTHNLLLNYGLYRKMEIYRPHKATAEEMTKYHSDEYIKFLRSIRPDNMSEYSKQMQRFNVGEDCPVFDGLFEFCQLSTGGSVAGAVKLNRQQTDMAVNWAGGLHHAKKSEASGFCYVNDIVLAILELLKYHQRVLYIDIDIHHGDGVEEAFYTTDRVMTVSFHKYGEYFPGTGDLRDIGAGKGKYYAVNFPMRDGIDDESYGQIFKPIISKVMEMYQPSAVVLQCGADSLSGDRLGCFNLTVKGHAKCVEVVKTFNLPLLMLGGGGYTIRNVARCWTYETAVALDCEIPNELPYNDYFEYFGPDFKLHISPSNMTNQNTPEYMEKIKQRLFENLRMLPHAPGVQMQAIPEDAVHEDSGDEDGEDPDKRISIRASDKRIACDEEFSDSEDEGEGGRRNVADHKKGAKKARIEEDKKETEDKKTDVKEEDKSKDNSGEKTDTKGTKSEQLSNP

[17] = biological target: Tubulin; assay: Inhibition of tubulin polymerization (unknown origin) incubated for 15 mins in presence of GTP by fluorescence-based tubulin polymerization assay kit; assay type: protein-complex assay, Homo sapiens
[18] = biological target: T1, Protein deacetylase HDAC6; assay: Inhibition of HDAC-6 (unknown origin) expressed in Escherichia coli BL21 (DE3) in HeLa nuclear extract using Boc-Lys(TFA)-AMC as substrate preincubated for 5 mins followed by substrate addition measured after 30 mins […]
[19] = biological target: T2, Receptor tyrosine-protein kinase erbB-2; assay: Inhibition of HER2 (unknown origin)
[20] = biological target: Histone deacetylase 1 (Homo sapiens, UniProt Q13547); assay: Inhibition of HDAC1 (unknown origin)
Chain of Histone deacetylase 1 (Q13547 whole entry): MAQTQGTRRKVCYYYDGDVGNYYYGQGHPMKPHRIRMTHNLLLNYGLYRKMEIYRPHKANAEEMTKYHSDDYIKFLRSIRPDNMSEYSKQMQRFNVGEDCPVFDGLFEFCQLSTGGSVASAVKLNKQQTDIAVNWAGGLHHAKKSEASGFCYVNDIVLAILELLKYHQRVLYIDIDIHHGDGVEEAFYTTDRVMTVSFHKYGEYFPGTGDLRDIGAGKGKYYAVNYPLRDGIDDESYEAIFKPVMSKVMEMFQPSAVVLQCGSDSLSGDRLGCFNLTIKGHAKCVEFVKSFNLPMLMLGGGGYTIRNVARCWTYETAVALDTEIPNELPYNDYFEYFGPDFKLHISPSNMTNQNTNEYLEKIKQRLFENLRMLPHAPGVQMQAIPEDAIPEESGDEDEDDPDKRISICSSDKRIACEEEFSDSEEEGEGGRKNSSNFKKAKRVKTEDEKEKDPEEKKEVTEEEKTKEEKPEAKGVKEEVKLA

[21] = biological target: Epidermal growth factor receptor (Homo sapiens, UniProt P00533); assay: Inhibition of EGFR (unknown origin)
Chain of Epidermal growth factor receptor (P00533 whole entry): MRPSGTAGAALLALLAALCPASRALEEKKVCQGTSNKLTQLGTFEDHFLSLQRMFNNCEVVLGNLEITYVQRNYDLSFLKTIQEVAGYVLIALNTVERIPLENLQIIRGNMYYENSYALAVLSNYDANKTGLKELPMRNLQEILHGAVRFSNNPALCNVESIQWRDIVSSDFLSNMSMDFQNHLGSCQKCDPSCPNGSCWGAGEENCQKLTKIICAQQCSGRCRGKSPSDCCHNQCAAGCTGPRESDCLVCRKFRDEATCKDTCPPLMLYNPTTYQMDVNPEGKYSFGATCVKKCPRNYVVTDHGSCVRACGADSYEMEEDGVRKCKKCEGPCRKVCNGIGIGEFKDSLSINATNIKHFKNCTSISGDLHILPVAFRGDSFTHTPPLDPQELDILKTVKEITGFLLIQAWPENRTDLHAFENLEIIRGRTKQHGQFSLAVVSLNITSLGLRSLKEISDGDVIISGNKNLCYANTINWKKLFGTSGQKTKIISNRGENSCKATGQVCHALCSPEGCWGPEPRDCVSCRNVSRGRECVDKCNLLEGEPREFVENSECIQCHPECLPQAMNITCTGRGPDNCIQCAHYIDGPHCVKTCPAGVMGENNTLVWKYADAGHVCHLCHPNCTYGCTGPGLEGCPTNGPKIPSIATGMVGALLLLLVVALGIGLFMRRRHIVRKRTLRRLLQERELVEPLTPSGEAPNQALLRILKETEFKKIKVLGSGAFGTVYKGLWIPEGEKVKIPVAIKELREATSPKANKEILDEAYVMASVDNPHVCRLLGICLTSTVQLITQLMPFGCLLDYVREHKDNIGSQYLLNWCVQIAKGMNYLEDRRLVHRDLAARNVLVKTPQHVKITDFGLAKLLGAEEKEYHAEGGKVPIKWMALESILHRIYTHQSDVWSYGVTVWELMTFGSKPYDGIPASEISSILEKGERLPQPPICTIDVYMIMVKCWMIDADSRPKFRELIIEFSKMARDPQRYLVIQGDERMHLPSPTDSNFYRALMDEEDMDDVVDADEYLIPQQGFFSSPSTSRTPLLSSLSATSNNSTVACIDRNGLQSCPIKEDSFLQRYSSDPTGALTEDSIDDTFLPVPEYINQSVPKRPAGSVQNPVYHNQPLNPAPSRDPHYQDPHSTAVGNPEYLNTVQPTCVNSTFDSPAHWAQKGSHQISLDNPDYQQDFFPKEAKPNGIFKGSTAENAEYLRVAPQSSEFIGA

[22] = system: DU-145; assay: Antiproliferative activity against human DU-145 cells incubated for 48 hrs by Sulforhodamine B staining method; assay type: functional, cell-based; conditions: DU-145, 48 h
[23] = system: PC-3; assay: Antiproliferative activity against human PC-3 cells incubated for 48 hrs by Sulforhodamine B staining method; assay type: functional, cell-based; conditions: PC-3, 48 h

Structure (SMILES): CC(C)=CCC/C(C)=C\CC/C(C)=C\CSc1ccccc1C(=O)O
IC50 [1]: 66 µM

IC50 [2]: 0.16 µM | IC50 [3]: 0.26 µM
Structure (SMILES): CN(CCOc1no[n+]([O-])c1S(=O)(=O)c1ccccc1)C(=O)c1ccc(/C=C/C(=O)NO)cc1

IC50 [2]: 7.4 µM | IC50 [4]: 0.532 µM | IC50 [5]: 0.608 µM | IC50 [3]: 0.343 µM
Structure (SMILES): O=C(CCCCCOc1no[n+]([O-])c1S(=O)(=O)c1ccccc1)NO

inhibition [6]: 64.2%
Structure (SMILES): COCCOc1cc2ncnc(Nc3ccc(/C=C/C(=O)NO)cc3)c2cc1OCCOC

Structure (SMILES): Nc1ccccc1NC(=O)c1ccc(CCCC(=O)Nc2ccc(C3CC3N)cc2)cc1 (stereo not given)
IC50 [7]: 0.2 µM

IC50 [8]: 0.087 µM
Structure (SMILES): CC(/C=C/C(=O)NO)=C\[C@@H](C)C(=O)c1ccc(N(C)C)cc1 [TRICHOSTATIN]

Structure (SMILES): CC1(C)C(=O)N(c2ccc(C#N)c(C(F)(F)F)c2)C(=O)N1CCCCCCc1cn(CCCCCCC(=O)NO)nn1
IC50 [9]: 15.7 µM | IC50 [10]: 12.1 µM | IC50 [11]: > 20 µM | IC50 [12]: > 20 µM | IC50 [13]: 14.6 µM

Structure (SMILES): Cc1sc2c(c1C)C(c1ccc(Cl)cc1)=N[C@@H](CC(=O)Nc1ccc(C(=O)NO)cc1)c1nnc(C)n1-2
inhibition in vivo at 20 mg/kg [14]: 87.7%

Structure (SMILES): CN1c2ccccc2C(=O)N2[C@H](C(=O)Nc3ccc(C(=O)Nc4ccccc4N)cc3)Cc3c([nH]c4ccccc34)[C@@H]12
inhibition in vivo at 150 mg/kg [15]: 75.2%

IC50 [16]: 0.85 µM | IC50 [17]: 2.02 µM
Structure (SMILES): C[C@H]1COc2c(N3CCN(C)CC3)c(F)cc3c(=O)c(C(=O)NCc4cn(CCCCCC(=O)NO)nn4)cn1c23

IC50 [18]: 0.0023 µM
Structure (SMILES): O=C(CCCCCNC(=O)c1cccc2cc3ccccc3nc12)NO

IC50 [19]: 0.066 µM | IC50 [20]: 0.041 µM | IC50 [21]: 0.078 µM
Structure (SMILES): C#Cc1cccc(Nc2ncnc3ccc(S(=O)(=O)n4ccc(/C=C/C(=O)Nc5ccccc5N)c4)cc23)c1

IC50 [22]: 2 µM | IC50 [23]: 1.86 µM
Structure (SMILES): CN(C)CCNC(=O)c1cccc2cc3ccccc3nc12
